Among the data in patent US6756210B2, “Linoleic acid diol and glucuronide conjugate levels as diagnostic markers of disorders of abnormal regulation of cytochrome P450 metabolism of unsaturated fatty acids” (The Regents of the University of California, priority 2001, dated 2004) are IC50 values, retold here.

In test [1] the target is T1, recombinant mouse sEH (MsEH) (Mus musculus, UniProt P34914).
T1 sequence (P34914 1-554): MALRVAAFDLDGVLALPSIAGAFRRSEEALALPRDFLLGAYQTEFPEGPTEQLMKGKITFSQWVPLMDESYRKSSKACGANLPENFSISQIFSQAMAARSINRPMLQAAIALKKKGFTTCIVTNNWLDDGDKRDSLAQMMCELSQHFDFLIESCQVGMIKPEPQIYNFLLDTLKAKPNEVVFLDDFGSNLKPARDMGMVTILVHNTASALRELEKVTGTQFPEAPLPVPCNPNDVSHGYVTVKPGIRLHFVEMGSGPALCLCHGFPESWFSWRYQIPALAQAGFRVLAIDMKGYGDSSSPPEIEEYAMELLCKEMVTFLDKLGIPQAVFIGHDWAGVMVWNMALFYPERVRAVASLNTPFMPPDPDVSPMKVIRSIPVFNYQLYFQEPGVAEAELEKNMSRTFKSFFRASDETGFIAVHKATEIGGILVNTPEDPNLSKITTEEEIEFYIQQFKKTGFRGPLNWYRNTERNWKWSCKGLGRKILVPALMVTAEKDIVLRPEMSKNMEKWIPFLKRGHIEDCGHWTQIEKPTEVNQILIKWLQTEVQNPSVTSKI
Briefly: Inhibition of recombinant mouse sEH (MsEH). The test is classed as biochemical.

In the next test the target is T2, Human sEH (HsEH) (Homo sapiens, UniProt P34913).
T2 sequence (P34913 1-555): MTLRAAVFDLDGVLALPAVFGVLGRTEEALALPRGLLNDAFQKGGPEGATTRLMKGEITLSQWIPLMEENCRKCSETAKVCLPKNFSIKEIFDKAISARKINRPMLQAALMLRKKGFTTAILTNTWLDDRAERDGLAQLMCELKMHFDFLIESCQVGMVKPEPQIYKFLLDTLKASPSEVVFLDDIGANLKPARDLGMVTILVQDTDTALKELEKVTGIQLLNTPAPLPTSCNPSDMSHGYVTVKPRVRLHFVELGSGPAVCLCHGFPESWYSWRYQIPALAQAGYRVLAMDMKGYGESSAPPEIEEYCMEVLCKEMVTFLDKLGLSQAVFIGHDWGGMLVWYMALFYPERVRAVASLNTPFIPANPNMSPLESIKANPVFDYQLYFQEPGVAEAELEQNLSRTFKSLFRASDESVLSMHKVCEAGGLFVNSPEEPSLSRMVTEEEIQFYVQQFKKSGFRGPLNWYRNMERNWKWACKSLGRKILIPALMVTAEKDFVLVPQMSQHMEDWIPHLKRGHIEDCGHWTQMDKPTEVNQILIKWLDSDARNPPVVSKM
Nature of the test: Inhibition of recombinant human sEH (HsEH). The test is classed as biochemical. To be noted: HsEH 0.26 μM.

Where [2] appears, read: Table 1, MsEH 0.13 μM, read-out: Mouse sEH IC50.
The mark [3] stands for this setting: Table 2, MsEH 0.13 μM, read-out: Mouse sEH IC50.

The structures appear in SMILES notation. Read-outs that look alike come from different tables or passages of the source.

As to `CC(C)[C@@H]1CC[C@@H](C)C[C@H]1OC(=O)NC1CCCCC1` [compound 225], the IC50 (usually the concentration at which inhibition is half-maximal) amounted to 0.84 ± 0.1 µM in test [1] (setting [2]) and 1.05 ± 0.03 µM on Human sEH (HsEH) (Table 1).
In the same order, the values of `O=C(NCCCN1CCOCC1)NC1CCCCC1` [compound 377] are 0.7 ± 0.1 µM and 17.8 ± 0.7 µM.
As to `CCOC(CNC(=O)Nc1ccc(C(C)C)cc1)OCC` [compound 159], the IC50 in test [1] (setting [2]) turned out to be 0.59 ± 0.03 µM; on Human sEH (HsEH) (Table 1), 3.4 ± 0.04 µM.
For `O=C(NCC1CCCCC1)C1CCCCC1` [compound 374], the IC50 came out at 0.25 ± 0.01 µM in test [1] (setting [2]) and 2.03 ± 0.07 µM on Human sEH (HsEH) (Table 1).
In the same order, the values of `CCCCCCCCNC(=O)NC(C)C` [compound 183] are 1.06 ± 0.07 µM and 5.9 ± 0.3 µM.
As for `O=C(NC1CCCCC1)NC1C2CC3CC(C2)CC1C3` (centres unmarked) [compound 427], the concentration for half-maximal inhibition (IC50) worked out at 0.05 ± 0.01 µM in test [1] (setting [2]) and 0.1 ± 0.01 µM at Human sEH (HsEH) (Table 1).
Consider `CC(=O)c1ccc(NC(=O)NC2CCCCC2)cc1` [compound 126], for which the results for the IC50 (in test [1] (setting [2]); at Human sEH (HsEH) (Table 1)) were 0.06 ± 0.01 µM and 0.27 ± 0.02 µM, respectively.
Taken in the same sequence, the figures for `C[C@@H](NC(=O)NC1CCCCC1)c1ccccc1` [compound 545] were 0.05 ± 0.01 µM and 3.7 ± 0.3 µM.
On to `CCCCCCCCCCCCNC(=O)NCCCC` [compound 531], for which the IC50 was determined as 0.14 ± 0.02 µM in test [1] (setting [2]) and 0.64 ± 0.03 µM on Human sEH (HsEH) (Table 1).
Consider `CCCCCCCCCCNC(=O)Nc1cccc(Cl)c1` [compound 172], for which the IC50 in test [1] (setting [2]) came out at 0.12 ± 0.01 µM; on Human sEH (HsEH) (Table 1), 0.3 ± 0.01 µM.
As to `O=C(Nc1cccc(Cl)c1)NC1CCCCC1` [compound 44], the IC50 in test [1] (setting [2]) was determined as 0.07 ± 0.01 µM.
Take `O=C(Nc1cccc2ccccc12)NC1CCCCC1` [compound 59]: the concentration for half-maximal inhibition (IC50) was found to be 0.85 ± 0.02 µM in test [1] (setting [2]) and 0.48 ± 0.01 µM on Human sEH (HsEH) (Table 1).
On to `CCCCCCCCNC(=O)OC` [compound 72], for which the IC50 was determined as 0.11 ± 0.01 µM in test [1] (setting [2]) and 0.48 ± 0.01 µM at Human sEH (HsEH) (Table 1).
`CCCCCCCCCCOC(=O)NC` [compound 248]: the IC50 in test [1] was found to be 0.33 ± 0.05 µM; at Human sEH (HsEH) (Table 1) it was 2.9 ± 0.6 µM.
Turning to `CCCNC(=O)Nc1cccc2ccccc12` [compound 253], the IC50 in test [1] (setting [2]) amounted to 0.1 ± 0.02 µM; at Human sEH (HsEH) (Table 1), 0.28 ± 0.01 µM.
Take `O=C(NCC1CCCCC1)Nc1cccc(Cl)c1` [compound 179]: the IC50 in test [1] (setting [2]) is 0.06 ± 0.01 µM; at Human sEH (HsEH) (Table 1) it was 0.1 ± 0.01 µM.
Consider `CC(=O)C1OC1c1ccc([N+](=O)[O-])cc1` (racemic) [R=4-NO2—C6H4, R′=CH3, X—Y=C═O, ±], for which the IC50 in test [1] (setting [3]) is 163 ± 11 µM; at Human sEH (HsEH) (Table 2) it was 269 ± 5 µM.
For the molecule `O=C(NCCc1ccccc1)NC1CCCCC1` [compound 36], the IC50 in test [1] (setting [2]) came to 0.06 ± 0.01 µM; at Human sEH (HsEH) (Table 1) it was 0.16 ± 0.02 µM.
Turning to `O=C(NCC1CCCCC1)NC1CCCCC1` [compound 57], the results for the IC50 (in test [1] (setting [2]); at Human sEH (HsEH) (Table 1)) were 0.06 ± 0.01 µM and 0.16 ± 0.01 µM, respectively.
As to `O=C(NC1CCCCC1)OCc1c2ccccc2cc2ccccc12` [compound 263], the values for the IC50 (in test [1] (setting [2]); at Human sEH (HsEH) (Table 1)) were 3 ± 0.3 µM and 0.33 ± 0.06 µM, respectively.
Turning to `O=C(NC1CCCCCCC1)NC1CCCCC1` [compound 58], in test [1] (setting [2]), the IC50 worked out at 0.05 ± 0.01 µM.
Same read-out and setting: under `CCCCCCCCCCCCNC(=O)OC1CCCCC1` [compound 514] stands 0.27 ± 0.01 µM; under `CC(C)c1ccc(NC(=O)NC2CCCCC2)cc1` [compound 66], 0.09 ± 0.01 µM.
As for `CCCCCCCCNC(=O)NCCCCCC` [compound 175], the IC50 on Human sEH (HsEH) (Table 1) was 0.24 ± 0.01 µM.
On to `O=[N+]([O-])c1ccc([C@H]2O[C@@H]2CO)cc1` [R=4-NO2—C6H4, R′=H, X—Y=CH—OH, R, R], for which the IC50 in test [1] (setting [3]) worked out at 1200 ± 25 µM.
Consider `O=[N+]([O-])c1ccc(C2OC2CO)cc1` (racemic) [R=4-NO2—C6H4, R′=H, X—Y=CH—OH, ±], for which the IC50 in test [1] (setting [3]) was found to be 5 ± 1 µM.
For `CCCCCCCCCCCCCC(=O)NC1CCCCC1` [compound 515], in test [1] (setting [2]), the IC50 was determined as 0.19 ± 0.05 µM.
Turning to `O=C(Nc1ccc(Cl)c(Cl)c1)Nc1ccc(Cl)c(Cl)c1` [compound 299], at Human sEH (HsEH) (Table 1), the IC50 was 0.26 µM.
For `OC[C@@H]1O[C@H]1c1ccccc1` [R=C6H5, R′=H, X—Y=CH—OH, S, S], the IC50 in test [1] (setting [3]) turned out to be 2400 ± 46 µM.
`O=[N+]([O-])c1ccc([C@@H]2O[C@H]2CO)cc1` [R=4-NO2—C6H4, R′=H, X—Y=CH—OH, S, S]: in test [1] (setting [3]), the IC50 amounted to 1.6 ± 0.6 µM.
The same measure, in the same setting: in the case of `OC[C@H]1O[C@@H]1c1ccccc1` [R=C6H5, R′=H, X—Y=CH—OH, R, R] it was 1100 ± 23 µM.
